Positions of bridges follow the written chain, without caps; N, C: chain ends. Non-standard residues stand in square brackets, D forms with d. Residues, ends and D or L forms follow the SMILES beside them. ξ: configuration not given here. *: point of attachment. ξNMePhe(4-NMe2) = CNC(Cc1ccc(N(C)C)cc1)C(=O)O; Picolinoyl(3-OH) = O=C(c1ncccc1O)*; ξPip(4-oxo) = O=C1CCNC(C(=O)O)C1; Phg = N[CH](C(=O)O)c1ccccc1; Abu = CC[CH](N)C(=O)O
Molecular target: T1, HCV NS3 helicase NS3h_1b(con1) (Hepatitis C virus genotype 1b, UniProt Q9WMX2)
T1 construct: truncated C-terminally His-tagged NS3 proteins lacking the N-terminal protease, called NS3h; His-tag (C); made in house
Assay: MBHA screen of NCI mechanistic set library at 20 μM (percent inhibition, compound interference)
Type: biochemical
Settings: compounds at 20 μM; for Inh. (%) (Inhibition): calculated from Equation 1
How it was run: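 Molecular beacon-based DNA unwinding assay; compounds screened at 20 μM in triplicate, with DMSO-only negative and 500 nM dT20 positive controls. Fluorescence (ex 643/em 670 nm) was read before and 30 min after adding ATP to 1 mM. Percent inhibition came from the change relative to DMSO controls; interference from pre-ATP fluorescence versus DMSO controls.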

[1] = assay interference calculated with Equation 2 (fluorescence vs DMSO-only controls before ATP)
[2] = MBHA with DNA substrate, assay interference calculated with Equation 2

T1 sequence (Q9WMX2 1192-1657): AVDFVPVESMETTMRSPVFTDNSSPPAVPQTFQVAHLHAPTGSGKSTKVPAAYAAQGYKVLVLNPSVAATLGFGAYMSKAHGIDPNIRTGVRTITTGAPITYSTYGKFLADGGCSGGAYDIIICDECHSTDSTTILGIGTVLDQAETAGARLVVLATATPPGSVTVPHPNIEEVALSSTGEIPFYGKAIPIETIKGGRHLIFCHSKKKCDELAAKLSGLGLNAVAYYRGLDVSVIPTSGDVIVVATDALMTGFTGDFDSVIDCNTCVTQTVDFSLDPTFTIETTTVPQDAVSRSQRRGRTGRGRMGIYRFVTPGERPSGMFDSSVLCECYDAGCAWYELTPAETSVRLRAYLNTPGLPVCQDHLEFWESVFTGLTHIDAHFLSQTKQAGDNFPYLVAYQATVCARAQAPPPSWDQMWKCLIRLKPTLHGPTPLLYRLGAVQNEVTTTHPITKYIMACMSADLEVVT

| Compound | Inh. (%) (Inhibition) (MBHA with a DNA substrate) | Int.* (Ratio) (Interference) [1] | Int.* (Ratio) (Interference) [2] | Inh. (%) (Inhibition) (MBHA with DNA substrate) |
| --- | --- | --- | --- | --- |
| Cc1ccc(Cl)c2c(N=Nc3ccccc3[N+](=O)[O-])c(O)[nH]c12 [Compound 118735] | −5.2 | 0.96 | – | – |
| CNc1nc(N(C)C)nc(N(C)C)n1 [Compound 118742] | 10.6 | 1.01 | – | – |
| S=C=NCc1ccccc1 [Compound 118976] | – | – | 0.96 | 13.9 |
| Cc1c2ccncc2c(C)c2c1sc1ccccc12 [Compound 119686] | 8.9 | 1.18 | – | – |
| N.N.[Cl][Pt][Cl] [Compound 119875] | – | – | 0.83 | 25.1 |
| CCCNC1=C(C)C(=O)C2=C(C1=O)[C@H](COC(N)=O)[C@]1(OC)[C@@H]3N[C@@H]3CN21 [Compound 123115] | −25.7 | 0.96 | – | – |
| Cc1c(N)nc([C@H](CC(N)=O)NC[C@H](N)C(N)=O)nc1C(=O)N[C@H](C(=O)N[C@H](C)[C@@H](O)[C@H](C)C(=O)N[C@H](C(=O)NCCc1nc(-c2nc(C(=O)NCCC[S+](C)C)cs2)cs1)[C@@H](C)O)[C@@H](OC1OC(CO)C(O)C(O)C1OC1OC(CO)C(O)C(OC(N)=O)C1O)c1cnc[nH]1 (some centres unmarked) [Compound 125066] | – | – | 0.79 | 15.8 |
| CC1=C\C(O)CC(=O)Cc2nc(co2)C(=O)N2CCC=C2C(=O)OC(C(C)C)C(C)/C=C/C(=O)NC/C=C\1.CCC1NC(=O)C(NC(=O)c2ncccc2O)C(C)OC(=O)C(c2ccccc2)NC(=O)C2CC(=O)CCN2C(=O)C(Cc2ccc(N(C)C)cc2)N(C)C(=O)C2CCCN2C1=O (centres unmarked) [Compound 125176] ({Picolinoyl(3-OH)}-T[Abu]P[ξNMePhe(4-NMe2)][ξPip(4-oxo)][Phg]; ester 1-C; configuration not given here) | −20.2 | 0.90 | – | – |
| O=C1C(=O)c2ccccc2C(O)=C1CC=C(Cl)Cl [Compound 126771] | – | – | 1.12 | −9.7 |
| COc1ccc(-c2cc(=O)c3c(O)cc(O)cc3o2)cc1OC [Compound 128305] | −4.3 | 0.99 | – | – |
| c1ccc2c(c1)nnn1c3cnccc3nc21 [Compound 128734] | −3.1 | 0.91 | – | – |
| CCC1=C(C[C@H]2NCCc3cc(OC)c(OC)cc32)C[C@H]2c3cc(OC)c(OC)cc3CCN2C1 [Compound 129414] | 12.0 | 1.08 | – | – |
| CC(CN1CC(=O)NC(=O)C1)N1CC(=O)NC(=O)C1 (centres unmarked) [Compound 129943] | −5.2 | 1.13 | – | – |
| COC1=C(N)C(=O)c2nc(C)ccc2C1=O [Compound 132493] | −22.9 | 1.07 | – | – |
| CC[C@](C)(O)C(=O)O[C@H]1C(=O)O[C@@H]2C[C@H]3C(C)=CC(=O)[C@@H](O)[C@]3(C)[C@H]3C4(O)OC[C@]32[C@@H]1[C@@H](C)[C@H]4O [Compound 132791] | 8.2 | 0.98 | – | – |
| Br.COC1CN(C)C(=Nc2cccc3ccccc23)S1 (centres unmarked) [Compound 135996] | – | – | 1.07 | −14.0 |
| CC1=CC23C(COC(=O)C24CO4)C(C(=O)O)=CC3C1C.NCc1ccccc1 (centres unmarked) [Compound 136037] | – | – | 1.00 | 3.9 |
| CC[C@@]1(O)C[C@H](OC2CC(N(C)C)C(O)C(C)O2)c2c(O)c3c(c(O)c2[C@H]1OC1CC(N(C)C)C(O)C(C)O1)C(=O)c1cccc(O)c1C3=O (some centres unmarked) [Compound 136044] | – | – | 0.33 | 47.9 |
| CCCC(=O)OCC1OC(n2ccc(N)nc2=O)C(OC(=O)CCC)C1OC(=O)CCC (centres unmarked) [Compound 138429] | 10.9 | 1.09 | – | – |
| CCS(=O)(=O)O.CN(C)C(=O)c1cccc(COc2ccc(N3C(N)=NC(N)=NC3(C)C)cc2Cl)c1 [Compound 139105] | 7.0 | 0.98 | – | – |
| Cc1cccc(NC(=O)/C=C/c2ccc([N+](=O)[O-])cc2)c1 [Compound 139109] | – | – | 1.06 | −1.2 |
| CN1c2c(nc(N)[nH]c2=O)NCC1CCNc1ccc(C(=O)N[C@@H](CCC(=O)[O-])C(=O)[O-])cc1.[Na+].[Na+] (some centres unmarked) [Compound 139490] | – | – | 0.95 | −13.8 |
| CC(C)=CCC(OC(=O)C=C(C)C)C1=CC(=O)c2c(O)ccc(O)c2C1=O (centres unmarked) [Compound 140377] | 9.4 | 0.93 | – | – |
| O=S(=O)(c1cccc(N=C=S)c1)c1cccc(N=C=S)c1 [Compound 140911] | – | – | 0.99 | 3.1 |
| CCN(CC)CCNc1ccc(CO)c2sc3ccccc3c(=O)c12 [Compound 142982] | – | – | 0.75 | 53.1 |

| Compound | Inh. (%) (Inhibition) (MBHA with a DNA substrate) | Int.* (Ratio) (Interference) [1] | Int.* (Ratio) (Interference) [2] | Inh. (%) (Inhibition) (MBHA with DNA substrate) |
| --- | --- | --- | --- | --- |
| Cl.NC(=O)c1cn(C2OC(CO)C(O)C2O)c2ncnc(N)c12 (centres unmarked) [Compound 143648] | −4.1 | 0.99 | – | – |
| C=C1C(=O)OCC2C(C(=O)O)=CC3C(C)C(C)=CC123 (centres unmarked) [Compound 145150] | – | – | 1.12 | −11.3 |
| CC(C)(C)CC(C)(C)NCC(O)COc1ccc(C(C)(C)c2ccc(OCC(O)CNC(C)(C)CC(C)(C)C)cc2)cc1.Cl (centres unmarked) [Compound 145366] | – | – | 0.53 | 33.1 |
| O=C1NC(c2cccc3ccccc23)Nc2ccccc21 (centres unmarked) [Compound 145669] | – | – | 1.14 | 14.8 |
| O=c1cnn(C2OC(CO)C(O)C2O)c(=S)[nH]1 (centres unmarked) [Compound 146268] | – | – | 1.15 | 0.2 |
| COc1cc2c[n+](C)c3c4cc5c(cc4ccc3c2cc1OC)OCO5 [Compound 146397] | – | – | 0.67 | 34.3 |
| O=c1[nH]c(=O)n(C2OC(CO)C(O)C2O)cc1F (centres unmarked) [Compound 146604] | – | – | 1.12 | 6.1 |
| COc1ccc(C[C@@H]2NC[C@@H](O)[C@@H]2OC(C)=O)cc1.Cl [Compound 147340] | −5.2 | 1.01 | – | – |
| O=c1[nH]c(=O)n(C2CCCO2)cc1F (centres unmarked) [Compound 148958] | – | – | 0.99 | −8.9 |
| COc1cc(NC(C)CCCN)c2ncccc2c1.O=P(O)(O)O.O=P(O)(O)O (centres unmarked) [Compound 149765] | – | – | 0.94 | 13.2 |
| COc1cc2cc(c1Cl)N(C)C(=O)C[C@H](OC(=O)[C@H](C)N(C)C(C)=O)[C@]1(C)O[C@H]1[C@H](C)[C@@H]1C[C@@](O)(NC(=O)O1)[C@H](OC)/C=C/C=C(\C)C2 [Compound 153858] | – | – | 0.95 | 0.3 |
| COC(=O)Nc1nc2ccc(Br)cc2[nH]1 [Compound 154754] | 7.6 | 0.91 | – | – |
| COc1cc2cc3c4cc(OC)c(OC)cc4cc[n+]3c(C)c2cc1OC.O=C(O)CS(=O)(=O)[O-] [Compound 154890] | – | – | 0.29 | 79.4 |
| N#CC1CC(c2ccccc2)Nc2cc(Cl)ccc2N1 (centres unmarked) [Compound 155595] | – | – | 1.17 | 2.3 |
| COC(=O)[C@@H]1[C@H](O)[C@H](C)[C@H](O)[C@H](C)/C=C\C=C(/C)C(=O)Nc2c(C)c(OC(C)=O)c3c(c2O)C(=O)C(C)=C2OCOC(=C23)/C(C)=C/[C@@](C)(O)[C@H](O)[C@@H](C)[C@H]1OC(C)=O [Compound 156215] | −23.4 | 1.02 | – | – |
| CC(=O)OCc1cc(=O)n(C)c2c3c4c(cc12)c(C)cc(=O)n4CO3 [Compound 157004] | 7.1 | 1.11 | – | – |
| CCN(CC)CCCC(C)Nc1ccnc(/C=C/c2ccc(Cl)cc2)c1 (centres unmarked) [Compound 157389] | 10.6 | 0.88 | – | – |
| Cc1ccc([S+](c2ccc(C)cc2)c2ccc(C)cc2)cc1 [Compound 157930] | 7.6 | 0.86 | – | – |
| CCOC(=O)/C=C/c1c(C)[nH]c(=O)[nH]c1=O [Compound 159935] | – | – | 0.89 | −0.8 |
| COc1ccc2cc3[n+](cc2c1OC)CCc1cc2c(cc1-3)OCO2.[Cl-] [Compound 163088] | – | – | 0.87 | 13.3 |
| Cc1c2cnccc2c(C)c2c1c1ccccc1n2CCOC(=O)c1ccccc1 [Compound 163443] | – | – | 0.88 | −7.6 |
| N[C@H](C(=O)O)[C@@H]1CC(Cl)=NO1 [Compound 163501] | 10.3 | 0.91 | – | – |
| CC(=O)[O][Sn]([CH2]c1ccccc1)([CH2]c1ccccc1)[CH2]c1ccccc1 [Compound 164909] | −20.2 | 1.04 | – | – |
| CCC[CH2][Sn]([CH2]CCC)([CH2]CCC)[O]c1cc(Cl)c(Cl)cc1Cl [Compound 164914] | 11.5 | 0.91 | – | – |

Source: patent publication US9464064B2, “HCV helicase inhibitors and methods of use thereof” (University of Kansas, priority 2011, dated 2016)
